These results are taken from patent US5281596A, “Antibacterial drugs for fish” (Bayer Aktiengesellschaft, priority 1986, dated 1994).

In brackets after ≈: the same amount, converted by molar mass. Like-named read-outs stand apart in the source and are kept apart here. Some results are limits rather than exact numbers.

Common to all, as to assay type: cell-based
Assay [1] relates to Pseudomonas anguilliseptica. Nature of the assay: In vitro antibacterial activity of Compound D against various pathogenic bacteria for fish (agar MIC, Test Example 2). The settings on record: 20 h, read-out: MIC (minimum growth-inhibition concentration). As for the experimental part: (§1) In vitro antibacterial activity of Compound D against Various Pathogenic Bacteria for Fish
(§2) Each of the test strains was cultured over-night, and the resultant culture broth (containing about 10^6 cells/ml) was innoculated in Mueller-Hinton agar (DIFCO) supplied with 1.0-2.0% sodium chloride and containing the test compound at the specified concentration.

In a further assay the test system is Aeromonas salmonicida. The description is as above. The settings on record: 20 h, read-out: MIC (minimum growth-inhibition concentration). As for the experimental part:
as §1, §2

Another assay has as its system Edwardsiella tarda. Described as above. The settings on record: 20 h, read-out: MIC (minimum growth-inhibition concentration). As for the experimental part:
as §1, §2

Assay [2] relates to Vibrio anguillarum. The description is as above. The settings on record: 20 h. As for the experimental part: as §1, §2
Assay [3] deals with Pasteurella piscicida. The description is as above. The settings on record: Photobacterium damselae, 20 h, read-out: MIC (minimum growth-inhibition concentration). As for the experimental part: as §1, §2
In the next assay the test system is Streptococcus sp. Described as above. The settings on record: 20 h, read-out: MIC (minimum growth-inhibition concentration). As for the experimental part:
as §1, §2

Assay [4] concerns Aeromonas hydrophila. Nature of the assay: In vitro antibacterial activity on pathogenic bacteria for fish (agar MIC, Test Example 1). The settings on record: 20 h; for MIC (minimum growth-inhibition concentration): Mueller-Hinton agar; for MIC: Aeromonas hydrophila. As for the experimental part:
(§3) In vitro antibacterial activity on pathogenic-bacteria for fish
(§4) Each of the test strains was cultured over-night, and each culture broth (containing about 10^6 cells/ml) was innoculated in Mueller-Hinton agar (DIFCO) supplied with 1.0-2.0% sodium chloride and containing the test compound at each specified concentration.

Assay [5] deals with Vibrio anguillarum. Described as above. The settings on record: 20 h; for MIC: Vibrio anguillarum, read-out: MIC (minimum growth-inhibition concentration); for MIC (minimum growth-inhibition concentration): Mueller-Hinton agar. As for the experimental part:
as §3, §4

Assay [6] has as its system Pasteurella piscicida. The description is as above. The settings on record: 20 h; for MIC (minimum growth-inhibition concentration): Mueller-Hinton agar; for MIC: Photobacterium damselae. As for the experimental part:
as §3, §4

Assay [7] relates to Aeromonas hydrophila. Nature of the assay: In vitro antibacterial activity of Compound D against various pathogenic bacteria for fish (agar MIC, Test Example 2). The settings on record: 20 h, read-out: MIC (minimum growth-inhibition concentration). As for the experimental part:
as §1, §2

[8] abbreviates: 25 strains, Mueller-Hinton agar, 25-30 °C.
The mark [9] stands for this setting: Aeromonas hydrophila strain KA8301, Mueller-Hinton agar, 25-30 °C, read-out: MIC (minimum growth-inhibition concentration).
Setting [10] is: Vibrio anguillarum strain NA8340, Mueller-Hinton agar, 25-30 °C.
Where [11] appears, read: Vibrio anguillarum strain NA8341, Mueller-Hinton agar, 25-30 °C.
Setting [12] is: Vibrio anguillarum strain NA8346, Mueller-Hinton agar, 25-30 °C.
The mark [13] stands for this setting: Vibrio anguillarum strain NA8347, Mueller-Hinton agar, 25-30 °C.
[14] abbreviates: Vibrio anguillarum strain NH8410, Mueller-Hinton agar, 25-30 °C.
The mark [15] stands for this setting: Pasteurella piscicida strain EH8304, Mueller-Hinton agar, 25-30 °C, read-out: MIC (minimum growth-inhibition concentration).
Where [16] appears, read: Pasteurella piscicida strain EH8312, Mueller-Hinton agar, 25-30 °C, read-out: MIC (minimum growth-inhibition concentration).
The mark [17] stands for this setting: Pasteurella piscicida strain EH8313, Mueller-Hinton agar, 25-30 °C, read-out: MIC (minimum growth-inhibition concentration).

As for `CCN1CCN(c2cc3c(cc2F)c(=O)c(C(=O)O)cn3C2CC2)CC1` [Compound D, 1-cyclopropyl-6-fluoro-1,4-dihydro-4-oxo-7-(4-ethylpiperazino)-quinoline-3-carboxylic acid], the MIC was in the range of 0.0125 to 0.025 µg/mL (≈ 0.0348 to 0.0696 µM) in assay [1] (18 strains, Mueller-Hinton agar, 25-30 °C); 0.0125 to 0.1 µg/mL (≈ 0.0348 to 0.278 µM) in the assay with Aeromonas salmonicida (setting [8]); 0.025 to 0.2 µg/mL (≈ 0.0696 to 0.556 µM) in the assay with Edwardsiella tarda (setting [8]); 0.025 to 0.4 µg/mL (≈ 0.0696 to 1.11 µM) in the assay with Vibrio anguillarum [2] (Ayu origin, 25 strains, Mueller-Hinton agar, 25-30 °C, read-out: MIC (minimum growth-inhibition concentration)); 0.05 to 0.1 µg/mL (≈ 0.139 to 0.278 µM) in the assay with Vibrio anguillarum [2] (Yellowtail origin, 25 strains, Mueller-Hinton agar, 25-30 °C, read-out: MIC (minimum growth-inhibition concentration)); 0.0125 to 0.05 µg/mL (≈ 0.0348 to 0.139 µM) in the assay on Pasteurella piscicida [3] (Pasteurella piscicida, 25 strains, Mueller-Hinton agar, 25-30 °C). For the same molecule, the MIC was 0.8 µg/mL (≈ 2.23 µM) in the assay with Streptococcus sp. (Streptococcus sp., 25 strains, Mueller-Hinton agar, 25-30 °C); 0.025 µg/mL (≈ 0.0696 µM) in the assay on Aeromonas hydrophila [4] (setting [9]); 0.025 µg/mL (≈ 0.0696 µM) with Vibrio anguillarum [5] (setting [10]); 0.025 µg/mL (≈ 0.0696 µM) with Vibrio anguillarum [5] (setting [11]); 0.025 µg/mL (≈ 0.0696 µM) in the assay with Vibrio anguillarum [5] (setting [12]); 0.025 µg/mL (≈ 0.0696 µM) in the assay on Vibrio anguillarum [5] (setting [13]). Moreover, the MIC came to 0.025 µg/mL (≈ 0.0696 µM) with Vibrio anguillarum [5] (setting [14]), 0.05 µg/mL (≈ 0.139 µM) in the assay on Pasteurella piscicida [6] (setting [15]), 0.05 µg/mL (≈ 0.139 µM) in the assay on Pasteurella piscicida [6] (setting [16]) and 0.05 µg/mL (≈ 0.139 µM) in the assay with Pasteurella piscicida [6] (setting [17]). In addition, the “MIC (minimum growth-inhibition concentration)” value in the assay on Aeromonas hydrophila [4] (Aeromonas hydrophila strain C 44, 25-30 °C) was less than 0.0125 µg/mL; in the assay with Aeromonas hydrophila [4] (Aeromonas hydrophila strain KA8414, 25-30 °C) it was less than 0.0125 µg/mL; against Aeromonas hydrophila [4] (Aeromonas hydrophila strain KA8416, 25-30 °C) it was less than 0.0125 µg/mL; against Aeromonas hydrophila [4] (Aeromonas hydrophila strain M 183, 25-30 °C), less than 0.0125 µg/mL; with Pasteurella piscicida [6] (Pasteurella piscicida strain EH8309, 25-30 °C), 0.025 µg/mL (≈ 0.0696 µM); in the assay with Pasteurella piscicida [6] (Pasteurella piscicida strain NG8319, 25-30 °C) it was 0.025 µg/mL (≈ 0.0696 µM).
For `CCn1cc(C(=O)O)c(=O)c2cc3c(cc21)OCO3` [Compound OA, 1-ethyl-1,4-dihydro-6,7-methylenedioxy-4-oxo-3-quinolinecarboxylic acid, reference compound], the MIC was in the range of 0.0125 to 0.05 µg/mL (≈ 0.0479 to 0.191 µM) in [1]; 0.05 to 3.2 µg/mL (≈ 0.191 to 12.2 µM) with Aeromonas salmonicida; 0.0125 to 0.025 µg/mL (≈ 0.0479 to 0.0957 µM) in the assay on Aeromonas hydrophila [7]; 0.05 to 1.6 µg/mL (≈ 0.191 to 6.12 µM) with Edwardsiella tarda; 0.05 to 25 µg/mL (≈ 0.191 to 95.7 µM) in the assay with Vibrio anguillarum [2] (read-out: MIC (minimum growth-inhibition concentration), Vibrio anguillarum, Ayu origin, 25 strains, Mueller-Hinton agar, 25-30 °C); 0.025 to 0.05 µg/mL (≈ 0.0957 to 0.191 µM) with Vibrio anguillarum [2] (read-out: MIC (minimum growth-inhibition concentration), Vibrio anguillarum, Yellowtail origin, 25 strains, Mueller-Hinton agar, 25-30 °C). Further, the MIC with Pasteurella piscicida [3] was 0.025 to 0.1 µg/mL (≈ 0.0957 to 0.383 µM); in the assay on Streptococcus sp. (Streptococcus), 200 to 400 µg/mL (≈ 766 to 1530 µM); in the assay on Aeromonas hydrophila [4] (read-out: MIC (minimum growth-inhibition concentration), Aeromonas hydrophila strain C 44, Mueller-Hinton agar, 25-30 °C), less than 0.0125 µg/mL; in the assay on Aeromonas hydrophila [4] (read-out: MIC (minimum growth-inhibition concentration), Aeromonas hydrophila strain KA8301, Mueller-Hinton agar, 25-30 °C) it was less than 0.0125 µg/mL; in the assay on Aeromonas hydrophila [4] (read-out: MIC (minimum growth-inhibition concentration), Aeromonas hydrophila strain KA8414, Mueller-Hinton agar, 25-30 °C) it was less than 0.0125 µg/mL; in the assay on Aeromonas hydrophila [4] (read-out: MIC (minimum growth-inhibition concentration), Aeromonas hydrophila strain KA8416, Mueller-Hinton agar, 25-30 °C), less than 0.0125 µg/mL. The MIC with Aeromonas hydrophila [4] (read-out: MIC (minimum growth-inhibition concentration), Aeromonas hydrophila strain M 183, Mueller-Hinton agar, 25-30 °C) was less than 0.0125 µg/mL; with Vibrio anguillarum [5], 0.05 µg/mL (≈ 0.191 µM); with Pasteurella piscicida [6] (read-out: MIC (minimum growth-inhibition concentration), Pasteurella piscicida strain EH8304, Mueller-Hinton agar, 25-30 °C), 0.1 µg/mL (≈ 0.383 µM); in the assay on Pasteurella piscicida [6] (read-out: MIC (minimum growth-inhibition concentration), Pasteurella piscicida strain EH8309, Mueller-Hinton agar, 25-30 °C) it was 0.1 µg/mL (≈ 0.383 µM); with Pasteurella piscicida [6] (read-out: MIC (minimum growth-inhibition concentration), Pasteurella piscicida strain EH8312, Mueller-Hinton agar, 25-30 °C) it was 0.1 µg/mL (≈ 0.383 µM); with Pasteurella piscicida [6] (read-out: MIC (minimum growth-inhibition concentration), Pasteurella piscicida strain EH8313, Mueller-Hinton agar, 25-30 °C) it was 0.1 µg/mL (≈ 0.383 µM). The MIC in the assay with Pasteurella piscicida [6] (read-out: MIC (minimum growth-inhibition concentration), Pasteurella piscicida strain NG8319, Mueller-Hinton agar, 25-30 °C) was 0.1 µg/mL (≈ 0.383 µM). Further, the “MIC (minimum growth-inhibition concentration)” value with Vibrio anguillarum [5] (Vibrio anguillarum strain NA8340, 25-30 °C) amounted to 0.05 µg/mL (≈ 0.191 µM); with Vibrio anguillarum [5] (Vibrio anguillarum strain NA8341, 25-30 °C) it was 0.05 µg/mL (≈ 0.191 µM); against Vibrio anguillarum [5] (Vibrio anguillarum strain NA8346, 25-30 °C) it was 0.05 µg/mL (≈ 0.191 µM); against Vibrio anguillarum [5] (Vibrio anguillarum strain NA8347, 25-30 °C), 0.05 µg/mL (≈ 0.191 µM).
For the molecule `CCOC(=O)c1cn(C2CC2)c2cc(N3CCN(CC)CC3)c(F)cc2c1=O` [Compound H, ethyl 1-cyclopropyl-6-fluoro-1,4-dihydro-4-oxo-7-(4-ethylpiperazino)-quinoline-3-carboxylate], the MIC with Aeromonas hydrophila [4] (Aeromonas hydrophila strain C 44, Mueller-Hinton agar, 25-30 °C, read-out: MIC (minimum growth-inhibition concentration)) was determined as 50 µg/mL (≈ 129 µM); in the assay with Aeromonas hydrophila [4] (setting [9]) it was 12.5 µg/mL (≈ 32.3 µM); with Aeromonas hydrophila [4] (Aeromonas hydrophila strain KA8414, Mueller-Hinton agar, 25-30 °C, read-out: MIC (minimum growth-inhibition concentration)), 25 µg/mL (≈ 64.5 µM); in the assay with Aeromonas hydrophila [4] (Aeromonas hydrophila strain KA8416, Mueller-Hinton agar, 25-30 °C, read-out: MIC (minimum growth-inhibition concentration)), 12.5 µg/mL (≈ 32.3 µM); in the assay with Aeromonas hydrophila [4] (Aeromonas hydrophila strain M 183, Mueller-Hinton agar, 25-30 °C, read-out: MIC (minimum growth-inhibition concentration)), 12.5 µg/mL (≈ 32.3 µM); in the assay on Vibrio anguillarum [5] (setting [10]) it was 25 µg/mL (≈ 64.5 µM). Besides, the MIC with Vibrio anguillarum [5] (setting [11]) amounted to 25 µg/mL (≈ 64.5 µM); in the assay on Vibrio anguillarum [5] (setting [12]), 12.5 µg/mL (≈ 32.3 µM); with Vibrio anguillarum [5] (setting [13]) it was 12.5 µg/mL (≈ 32.3 µM); with Vibrio anguillarum [5] (setting [14]) it was 12.5 µg/mL (≈ 32.3 µM); with Pasteurella piscicida [6] (setting [15]) it was 25 µg/mL (≈ 64.5 µM); with Pasteurella piscicida [6] (Pasteurella piscicida strain EH8309, Mueller-Hinton agar, 25-30 °C, read-out: MIC (minimum growth-inhibition concentration)), 25 µg/mL (≈ 64.5 µM). The MIC in the assay on Pasteurella piscicida [6] (setting [16]) came out at 12.5 µg/mL (≈ 32.3 µM); with Pasteurella piscicida [6] (setting [17]), 12.5 µg/mL (≈ 32.3 µM); with Pasteurella piscicida [6] (Pasteurella piscicida strain NG8319, Mueller-Hinton agar, 25-30 °C, read-out: MIC (minimum growth-inhibition concentration)), 25 µg/mL (≈ 64.5 µM).
